Earlier results, collected in patent US10123974B2, “Sustained release formulation of a non-steroidal anti-inflammatory drug” (PACIRA PHARMACEUTICALS, INC., priority 2010, dated 2018).

Settings: chronic 100 mg/day systemic dosing

- synovial fluid levels: ≤ 200 ng/mL
SMILES: O=C(O)Cc1ccccc1Nc1c(Cl)cccc1Cl [diclofenac]
